Tested on: cigarette smoke-induced COPD
Assay: Acute (4 day) cigarette smoke exposure COPD model
Format: in vivo, mouse
Conditions: acute 4 day smoke model
Procedure: The efficacy of GSNOR inhibitors was assessed in a mouse model of chronic obstructive pulmonary disease (COPD) induced by short duration (4 days or 11 days) of exposure to cigarette smoke. Infiltration of inflammatory cells into the bronchoalveolar lavage fluid (BALF) and BALF levels of chemokines involved in inflammation and tissue turnover/repair were measured to assess the influences of GSNOR inhibitors on some of the early events associated with the initiation and progression of COPD.
Efficacy of GSNOR inhibitors against COPD was explored using acute (4 day) and subchronic (11 day) models of cigarette smoke-induced COPD in mice. […] In animal models, changes in lung pathology are only evident after extended (several months) duration of exposure to cigarette smoke, thus making chronic models prohibitive as effective screening tools. More recently, models exploring inflammatory responses after short duration (2 weeks or less) of smoke exposure in mice have been utilized as tools for screening efficacy and mechanisms of action of novel therapeutics against COPD. The key roles of inflammation in the initiation and progression of COPD, make these short duration models relevant for initial tests of efficacy of novel therapeutics.
Female C57Bl/6 mice (N=8 per group) were exposed to cigarette smoke using a whole body exposure chamber. Mice were exposed daily for 4 consecutive days to 4 cycles of smoke from 6 sequential cigarettes (Kentucky 3R4F without filter) with a 30 minute smoke free interval between cycles. GSNOR inhibitors were administered daily via oral dosing at 10 mg/kg/day for 7 days starting 2 days prior to smoke exposure and continuing 1 day post-exposure. The effects of GSNOR inhibitors were assessed by quantitating the numbers of total cells, leukocytes, and leukocytes differentials in the BALF via light microscopy and the levels of BALF chemokines via ELISA at approximately 24 h after the last smoke exposure. The effect of GSNOR inhibitors were compared to vehicle treated controls. The PDE4 inhibitor, roflumilast, was used as the positive control for the study. A group of naïve mice (N=8) was exposed to air and used as a negative control for the study.

**Q.** Which results are given for `O=c1c2ccc(O)cc2oc(C(F)(F)F)c1[C@H]1CC[C@H](C(=O)O)CC1` [IV-25]?
**A.** effects compared with roflumilast: comparable to or greater than those observed for roflumilast; BALF chemokines (oral 10 mg/kg/day for 7 days): restored BALF chemokines towards levels observed in naïve mice
